{"source": "patent US7998924B2", "about": "“Compounds that bind to p185 and methods of using the same” (The Trustees of The University of Pennsylvania, priority 2001, dated 2011)", "key": {"[1]": {"target": "T1, HER2 receptor (Homo sapiens, UniProt P04626)", "T1 construct": "Recombinant purified HER2 receptor composed of the ectodomain of HER2 fused to the Fc of human IgG; purchased Xcyte Therapeutics, Seattle, Wash; (provided by Dr. Che Law; a gift, not a catalogue product)", "T1 sequence (P04626 23-652 limits assumed)": "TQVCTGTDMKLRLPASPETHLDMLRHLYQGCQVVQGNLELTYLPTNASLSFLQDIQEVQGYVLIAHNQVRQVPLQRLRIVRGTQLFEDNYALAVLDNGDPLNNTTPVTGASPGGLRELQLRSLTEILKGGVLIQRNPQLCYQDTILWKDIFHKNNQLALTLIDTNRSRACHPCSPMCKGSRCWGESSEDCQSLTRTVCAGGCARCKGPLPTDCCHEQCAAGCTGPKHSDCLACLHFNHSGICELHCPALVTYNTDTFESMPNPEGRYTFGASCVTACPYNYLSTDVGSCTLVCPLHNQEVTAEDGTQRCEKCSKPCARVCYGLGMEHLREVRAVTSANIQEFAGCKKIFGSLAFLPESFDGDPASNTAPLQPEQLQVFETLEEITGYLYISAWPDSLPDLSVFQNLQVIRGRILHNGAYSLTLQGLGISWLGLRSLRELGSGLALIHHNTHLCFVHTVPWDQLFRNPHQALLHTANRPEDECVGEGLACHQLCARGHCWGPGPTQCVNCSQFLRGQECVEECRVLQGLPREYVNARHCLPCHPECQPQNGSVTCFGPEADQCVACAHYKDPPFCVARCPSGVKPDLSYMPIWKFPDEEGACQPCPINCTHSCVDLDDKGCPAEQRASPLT", "assay": "Biacore (surface plasmon resonance) binding of peptides to immobilized HER2", "description": "Binding of AHNP has been studies by means of surface plasmon resonance (Biacore) technology. In Biacore experiments, one of the interacting molecules (termed the ligand) is immobilized on the sensor surface, and the other interactant (termed the analyte) is continuously flown over that surface in a micro-flow cell. The interaction between the ligand and the analyte are monitored using a light source that is reflected at the immobilized chip. Binding of the analyte to the immobilized ligand changes the resonance angle of the reflected light due to changes in the refractive index of the surface. The response is plotted in real time in the form of sensorgram curves. The advantage with this approach is its sensitivity, ease of use, and ability to perform experiments with few microgram quantities of proteins and peptides. In addition, the kinetic binding studies reveal association and disassociation rates of the analyte which may be more relevant for understanding the pharmacokinetics of drug-receptor interactions.\nBinding experiments were performed with the surface plasmon resonance based biosensor instrument Biacore 3000 (Biacore AB, Uppsala, Sweden) at 25° C. Recombinant purified HER2 receptor composed of the ectodomain of HER2 fused to the Fc of human IgG was provided by Dr. Che Law, Xcyte Therapeutics, Seattle, Wash. Immobilization of HER2 in the sensor surface was performed following the standard amine coupling procedure according to manufacturer's instructions. Briefly, 35 pit of a solution containing 0.2M N-ethyl-N-(dimethylaminopropyl) carbodiimide (EDC) and 0.05 M N-hydroxysuccinimide (NHS) were injected at a flow rate of 5 μL/min to activate carboxyl groups on the sensor chip surface. HER2 (40 ng/mL in 10 mM NaOAc buffer, pH 5.0) was flowed over the chip surface at a flow rate of 20 μL/min until the desired level bound protein was reached. Unreacted protein was washed out and unreacted activated groups were blocked by the injection of 35 μL of 1 M ethanolamine at 5 μL/min. […] A reference surface was generated simultaneously under the same conditions but without HER2 injection and used as a blank to correct for instrument and buffer artifacts. Peptides were injected at variable concentrations at 20 μL/min flow rate and binding to the HER2 receptor immobilized on the chip was monitored in real time. Each sensorgram consists of an association phase (first 240 s), reflecting binding of the injected peptide to the receptor, followed by a dissociation phase (300 s), during which the running buffer is passed over the chip and the bound peptide is being washed off the receptor surface."}, "[2]": {"target": "T1, HER2 receptor", "assay": "Biacore competition: AHNP preinjection inhibits rhumAb 4D5 binding to immobilized HER2", "protocol": "It was shown earlier that the AHNP peptide can mimic some functions of the anti-HER2/neu antibody, rhumAb 4135 in vitro and in vivo (see reference 40 below). […] To that end, injections of AHNP at variable concentrations (from 0 to 90 μM) were followed by injections of rhumAb 4135 at a constant 1 nM concentration, using the “Coinject” mode of the Biacore instrument.\nBinding experiments were performed with the surface plasmon resonance based biosensor instrument Biacore 3000 (Biacore AB, Uppsala, Sweden) at 25° C. Recombinant purified HER2 receptor composed of the ectodomain of HER2 fused to the Fc of human IgG was provided by Dr. Che Law, Xcyte Therapeutics, Seattle, Wash. Immobilization of HER2 in the sensor surface was performed following the standard amine coupling procedure according to manufacturer's instructions. Briefly, 35 pit of a solution containing 0.2M N-ethyl-N-(dimethylaminopropyl) carbodiimide (EDC) and 0.05 M N-hydroxysuccinimide (NHS) were injected at a flow rate of 5 μL/min to activate carboxyl groups on the sensor chip surface. HER2 (40 ng/mL in 10 mM NaOAc buffer, pH 5.0) was flowed over the chip surface at a flow rate of 20 μL/min until the desired level bound protein was reached. […] Peptides were injected at variable concentrations at 20 μL/min flow rate and binding to the HER2 receptor immobilized on the chip was monitored in real time. […]"}, "[3]": {"tested_on": "T6-17 cells", "protocol": "(See reference 46 below.) HER2-expressing transformed tumor cells (T6-17) were used for this purpose. […] Each value represents an average of at least four samples.\nThe MTT assay has been used for measuring cell growth as previously described in ref 446. Briefly, T6-17 cells were seeded in 96-well plates overnight in DMEM containing 10% FBS (1000 per well). T6-17 is derived from NIH3T3 by overexpressing the human HER2 receptor. Cells were cultured in 100 μL of fresh medium containing 1 μg/mL of peptides for 48 h. […] A total of 25 μL of MTT solution (5 mg/mL in PBS) was added to each well, and after 2 h of incubation at 37° C., 100 μA of the extraction buffer (20% w/v of SDS, 50% N,N-dimethyl formamide, pH 4.7) were added. After an overnight incubation at 37° C., the optical density at 600 rim was measured using an ELISA reader."}, "[4]": {"assay": "Peptide solubility in PBS buffer at 1 mg/mL", "type": "physicochemical", "conditions": "pH 7.4, 1 mg/mL", "protocol": "These peptides could be readily dissolved in the PBS buffer, pH 7.4, at 1 mg/mL concentration without adjustment of pH."}}, "note": "pIC50, pKd: −log10 of the molar value. Where two headings read alike, the source gives them in different places."}
{"smiles": "CSCC[C@H](NC(=O)[C@H](Cc1ccc(O)cc1)NC(=O)[C@@H]1CSSC[C@H](NC(=O)[C@@H](N)Cc2ccccc2)C(=O)N[C@@H](CC(=O)O)C(=O)NCC(=O)N[C@@H](Cc2ccccc2)C(=O)N[C@@H](Cc2ccc(O)cc2)C(=O)N[C@@H](C)C(=O)N1)C(=O)N[C@@H](CC(=O)O)C(=O)N[C@H](C(N)=O)C(C)C", "note": "[Peptide 1]", "values": [{"measurement": "koff", "setting": "[1]", "result": 0.000453, "unit": "s⁻¹"}, {"measurement": "kon", "setting": "[1]", "result": 1410, "unit": "M⁻¹ s⁻¹"}, {"measurement": "receptor-binding affinity (in words)", "setting": "[1]; Biacore", "result": "submicromolar"}, {"measurement": "pKd", "setting": "[1]; Biacore, immobilized HER2, 25° C., read-out: binding to HER2 KD", "result": 6.49}, {"measurement": "koff", "setting": "[1]; read-out: binding to HER2 koff", "result": 0.000453, "unit": "s⁻¹"}, {"measurement": "kon", "setting": "[1]; read-out: binding to HER2 kon", "result": 1410, "unit": "M⁻¹ s⁻¹"}, {"measurement": "pIC50", "setting": "[2]", "result": 5.47}, {"measurement": "% inhibition of T6-17 cell proliferation in MTT assays", "setting": "[3]; 1 μg/mL of peptides for 48 h", "result": 35.5, "unit": "%"}, {"measurement": "inhibition of growth of T6-17 cells (in words)", "setting": "[3]; 0.01 to 10 μg/mL", "result": "dose-dependently"}, {"measurement": "solubility", "setting": "[4]", "result": "< 1000", "unit": "µg/mL"}]}
